US20180071281A1, “TREATING CHRONIC RHINOSINUSITIS” (Gerbe Labs Inc., priority 2016, published 2018)

How the values were obtained:
chronic rhinosinusitis = experiment: Case studies: patients with chronic rhinosinusitis treated with nebulized formulation; format: in vivo, human; details: particularly in combination with the compositions and formulations; vancomycin in cases where MRSA is present
Description: In all of the following studies, the skin testing of Example 1 was used to identify the inhalant antigen or antigens responsible for triggering systemic inflammatory symptoms and the localized inflammatory sinus symptoms. The chronic rhinosinusitis of the patients was all successfully treated. Moreover, the patients also experienced resolution of systemic inflammatory symptoms.
Each of the patients avoided additional exposure to the fungal spores that were identified by the skin test. The patients ostia was dilated, and the formulation was administered with a nebulizer. Additionally, systemic anti-fungal medication directed toward the specific fungi was administered for 4-6 weeks, followed by intermittent nebulization with mometasone and 2% mupirocin powder, which has both anti-fungal and anti-bacterial properties. These treatments were administered every other day to every third day for several months with C-reactive protein (CRP} levels checked every 4-6 weeks to monitor change.
Patient 1 is a retired nurse who presented with chronic fatigue, chronic headaches, facial pain, and a sleep disorder characterized by Rapid Eye Movement (REM) sleep deprivation. The patient was a two pack/day smoker. […] The patient was treated with a formulation of 125 mg tobramycin, […]

[1] = cited from earlier work; for systemic absorption: used topically
S. aureus = experiment: Culture from Patient 7, sensitivity of bacteria; format: cell-based; details: Patient 7 culture
Description: The patient underwent the standard workup for CRS, sleep disorder, and nasal obstruction, plus our diagnostic skin test and sinus CT scan.

[2] = system: gram negative and gram positive organisms; details: cited from earlier work

Structure (SMILES) | effectiveness of the antibiotic (chronic rhinosinusitis) | safety ([1]; topical, nasal cavity and sinuses, approved for children under the age of 3) | systemic absorption [1] | sensitivity of cultured S. aureus (S. aureus) | activity against gram negative and gram positive organisms [2] | oral absorption ([1]; orally)
CN[C@H](CC(C)C)C(=O)N[C@H]1C(=O)N[C@@H](CC(N)=O)C(=O)N[C@H]2C(=O)N[C@H]3C(=O)N[C@H](C(=O)N[C@H](C(=O)O)c4cc(O)cc(O)c4-c4cc3ccc4O)[C@H](O)c3ccc(c(Cl)c3)Oc3cc2cc(c3O[C@@H]2O[C@H](CO)[C@@H](O)[C@H](O)[C@H]2O[C@H]2C[C@](C)(N)[C@H](O)[C@H](C)O2)Oc2ccc(cc2Cl)[C@H]1O [vancomycin] | highly effective |  |  |  |  | 
C[C@@H]1C[C@H]2[C@@H]3CCC4=CC(=O)C=C[C@]4(C)[C@@]3(Cl)[C@@H](O)C[C@]2(C)[C@@]1(OC(=O)c1ccco1)C(=O)CCl [Mometasone furoate] |  | very safe | very little systemic absorption |  |  | 
NC[C@H]1O[C@H](O[C@H]2[C@H](O)[C@@H](O[C@H]3O[C@H](CO)[C@@H](O)[C@H](N)[C@H]3O)[C@H](N)C[C@@H]2N)[C@H](N)C[C@@H]1O [tobramycin] | highly effective |  | not absorbed systemically | sensitive | excellent activity | very, very poorly absorbed
